According to ChEMBL document CHEMBL1123590, “Dopamine agonists related to 3-allyl-6-chloro-2,3,4,5-tetrahydro-1-(4-hydroxyphenyl)-1H-3-benzaz epi ne-7, 8-diol. 6-Position modifications” (J Med Chem, 1987):

Columns and labels:
D(2) dopamine receptor [1] = target: T1, D(2) dopamine receptor (Homo sapiens, UniProt P14416); assay: Dopamine receptor D2 agonist activity was determined for inhibition of the constrictor response to electrical stimulation in an isolated perfused rabbit ear artery preparation; format: functional, Oryctolagus cuniculus; settings: target entry is the homologue from another species
T1 sequence (P14416 whole entry, the tested form may be a part): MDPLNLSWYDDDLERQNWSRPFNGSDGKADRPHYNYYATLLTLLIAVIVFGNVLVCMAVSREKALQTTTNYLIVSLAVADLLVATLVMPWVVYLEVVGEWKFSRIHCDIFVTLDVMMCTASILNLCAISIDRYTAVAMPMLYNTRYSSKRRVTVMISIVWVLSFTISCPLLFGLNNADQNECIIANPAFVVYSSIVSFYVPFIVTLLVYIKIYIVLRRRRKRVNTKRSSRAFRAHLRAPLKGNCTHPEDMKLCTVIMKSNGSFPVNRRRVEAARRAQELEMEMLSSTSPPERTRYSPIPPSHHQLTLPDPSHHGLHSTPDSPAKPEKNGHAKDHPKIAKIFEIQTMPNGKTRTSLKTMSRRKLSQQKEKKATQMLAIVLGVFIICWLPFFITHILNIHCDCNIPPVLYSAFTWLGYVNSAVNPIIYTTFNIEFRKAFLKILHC

D(1A) dopamine receptor = D(1A) dopamine receptor (Rattus norvegicus, UniProt P18901); assay: Dopamine agonist (Dopamine receptor D1) activity was measured as increase in cAMP formation relative to maximum increase in dopamine-sensitive adenylate cyclase; format: functional
Chain of D(1A) dopamine receptor (P18901 whole entry): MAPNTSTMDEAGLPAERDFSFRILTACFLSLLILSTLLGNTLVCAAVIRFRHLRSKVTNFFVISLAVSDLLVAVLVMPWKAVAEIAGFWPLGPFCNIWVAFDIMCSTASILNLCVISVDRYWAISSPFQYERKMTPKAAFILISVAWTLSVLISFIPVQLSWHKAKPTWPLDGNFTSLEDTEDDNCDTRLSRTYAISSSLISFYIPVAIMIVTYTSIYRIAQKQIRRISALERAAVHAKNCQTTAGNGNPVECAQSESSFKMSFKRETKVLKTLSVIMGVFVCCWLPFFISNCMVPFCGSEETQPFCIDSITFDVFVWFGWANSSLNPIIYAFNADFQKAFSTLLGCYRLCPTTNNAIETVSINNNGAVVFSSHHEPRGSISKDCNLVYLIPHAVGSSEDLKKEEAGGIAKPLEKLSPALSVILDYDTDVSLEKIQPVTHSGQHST

Rattus norvegicus = organism: Rattus norvegicus; assay: Maximum response of adenylate cyclase to that of maximum response caused by dopamine was measured; format: functional; parameters: unit not given here
D(2) dopamine receptor [2] = target: T1, D(2) dopamine receptor; assay: Dopamine receptor D2 agonist activity was determined for inhibition of release of NE in an isolated perfused rabbit ear artery preparation

SMILES | EC50 (D(2) dopamine receptor [1]) [nM] | EC50 (D(1A) dopamine receptor) [nM] | EC50 (D(2) dopamine receptor [2]) [nM] | Max response (Rattus norvegicus)
C=CCN1CCc2c(cc(O)c(O)c2F)C(c2ccc(O)cc2)C1.CS(=O)(=O)O (stereo unspecified) | 137 | 100 | – | 89
C=CCN1CCc2c(cc(O)c(O)c2Cl)C(c2ccc(O)cc2)C1.CS(=O)(=O)O (stereo unspecified) | – | 15 | 122 | 80
Br.C=CCN1CCc2cc(O)c(O)cc2C(c2ccc(O)cc2)C1 (stereo unspecified) | 253 | 400 | – | 35
C=CCN1CCc2cc(O)c(O)cc2C(c2ccccc2)C1.Cl (stereo unspecified) | – | – | – | 45

The remaining compounds from weak to strong by EC50 (D(1A) dopamine receptor), led by results:

EC50 (D(2) dopamine receptor [1]) [nM] | EC50 (D(1A) dopamine receptor) [nM] | EC50 (D(2) dopamine receptor [2]) [nM] | SMILES | Max response (Rattus norvegicus)
> 10000 | 400 | – | C=CCN1CCc2c(cc(O)c(O)c2C)C(c2ccc(O)cc2)C1.Cl (stereo unspecified) | 69
174 | 50 | – | C=CCN1CCc2c(cc(O)c(O)c2Br)C(c2ccc(O)cc2)C1.CS(=O)(=O)O (stereo unspecified) | 78
